Measurements reported in patent publication US6461997B1, “Triazole sulfones having herbicidal activity” (Monsanto Technology LLC, priority 1999, dated 2002).

test system: CIRAR (canada thistle (seedling)); test: Pre-emergence herbicidal activity, warm season; type: in vivo, Cirsium arvense; settings: GR80 = lowest tested rate (300, 100, 30, 10 g/ha) with 80% or greater inhibition; approx. 14 days after treating; 30/21° C.
Procedure, shortened: (§1)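 GR80 values derive from percent inhibition relative to untreated plants, read roughly 14 days after sowing and pre-emergence soil-surface treatment (compound in 50:50 acetone/water; rates typically 10, 30, 100, 300 g/ha). Warm-season weeds grew at 30/21° C day/night, cool-season ones at 18/13° C; an asterisk marks activity without reaching 80% at the highest rate.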

SMILES	Pre-emergence activity (GR80) CIRAR [g/ha]
C=CCN(C)C(=O)n1cnc(S(=O)(=O)C(F)F)n1 [Example 30]	300

test system: SINAR (wild mustard); test: Pre-emergence herbicidal activity, cool season; type: in vivo, Sinapis arvensis; settings: lowest tested rate with 80% or greater inhibition; rates 300, 100, 30, 10 g/ha; about 14 days
Procedure, shortened: as §1

SMILES	Pre-emergence activity GR80, SINAR [g/ha]
C=CCN(C)C(=O)n1cnc(S(=O)(=O)C(F)F)n1 [Example 30]	100

test system: PANMI (wild proso millet); test: Pre-emergence herbicidal activity, warm season; type: in vivo, Panicum miliaceum; settings: GR80 = lowest tested rate (300, 100, 30, 10 g/ha) with 80% or greater inhibition; approx. 14 days after treating; 30/21° C.
Procedure, shortened: (§2)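 GR80 values, pre-emergence, soil applied at 300, 100, 30, 10 g/ha. Warm regime 30/21 °C: PANMI, DIGSA. Cool regime 18/13 °C: ALOMY, POLCO. Rating ~14 d, % inhibition vs untreated.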

SMILES	Pre-emergence activity (GR80) PANMI [g/ha]
C=CCN(C)C(=O)n1cnc(S(=O)(=O)C(F)F)n1 [Example 30]	100

test system: LAMPU (purple deadnettle); test: Pre-emergence herbicidal activity, cool season; type: in vivo, Lamium purpureum; settings: lowest tested rate with 80% or greater inhibition; rates 300, 100, 30, 10 g/ha; about 14 days
Procedure, shortened: as §1

SMILES	Pre-emergence activity GR80, LAMPU [g/ha]
C=CCN(C)C(=O)n1cnc(S(=O)(=O)C(F)F)n1 [Example 30]	10

test system: DIGSA (large crabgrass); test: Pre-emergence herbicidal activity, warm season; type: in vivo, Digitaria sanguinalis; settings: GR80 = lowest tested rate (300, 100, 30, 10 g/ha) with 80% or greater inhibition; approx. 14 days after treating; 30/21° C.
Procedure, shortened: as §2

SMILES	Pre-emergence activity (GR80) DIGSA [g/ha]
C=CCN(C)C(=O)n1cnc(S(=O)(=O)C(F)F)n1 [Example 30]	300

test system: AEGCY (jointed goatgrass); test: Pre-emergence herbicidal activity, cool season; type: in vivo, Aegilops cylindrica; settings: GR80 = lowest tested rate (300, 100, 30, 10 g/ha) with 80% or greater inhibition; approx. 14 days after treating; 18/13° C.
Procedure: (§3) Tables 5 to 8 summarize results of tests conducted as described below to determine the pre-emergence herbicidal activity, in the form of a GR80 value, of illustrative compounds of this invention. […] Compounds of the invention were typically applied at rates of 300, 100, 30, and 10 g/ha. Where herbicidal activity was evident but 80% inhibition was not achieved at the highest rate tested, an asterisk (*) is shown in the following tables.
(§4) The pre-emergence tests were conducted by the following procedure. Topsoil was sieved to pass through a 1.27 cm screen. Fertilizer was added to the topsoil and the mixture was then sterilized by heating. The topsoil mixture was placed in a pot and compacted to a depth of 1.0 to 1.25 cm from the top of the pot. Seeds of each of several monocotyledonous and dicotyledonous annual plant species were placed on top of the soil. Additional soil was subsequently placed over the seeds to level-fill the pot. A known amount of each test compound dissolved or suspended in an appropriate organic solvent was diluted with a 50:50 mix of acetone and water and applied to the surface of the soil. After treatment the plants were placed in a greenhouse where they received 0.64 cm of overhead irrigation. All subsequent watering consisted of a light overhead mist and/or subirrigation as needed for germination and growth. Tables 5 and 6 below relate to warm season plant species which were placed after pre-emergence treatment in a greenhouse with a 30/21° C. day/night temperature regime. Tables 7 and 8 below relates to cool season plant species placed after pre-emergence treatment in a greenhouse or growth chamber with an 18/13° C. day/night temperature regime.
(§5) Approximately 14 days after planting and treating, the plants were observed and herbicidal efficacy recorded as percent inhibition by comparison with untreated plants.
(§6) The plant species usually regarded as weeds which were utilized in the tests are identified in the tables below according to the following legend, in which “d” indicates a dicotyledonous species and “m” a monocotyledonous species. All monocotyledonous species included in the tests herein are grasses.

SMILES	Pre-emergence activity (GR80) AEGCY [g/ha]
C=CCN(C)C(=O)n1cnc(S(=O)(=O)C(F)F)n1 [Example 30]	100

test system: SETFA (giant foxtail); test: Pre-emergence herbicidal activity, warm season; type: in vivo, Setaria faberi; settings: GR80 = lowest tested rate (300, 100, 30, 10 g/ha) with 80% or greater inhibition; approx. 14 days after treating; 30/21° C.
Procedure, shortened: (§7)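 Seeds sown in sterilised fertilised topsoil received surface-applied compound in 50:50 acetone/water, typically at 300, 100, 30 and 10 g/ha, then greenhouse-grown at 30/21° C (warm-season species) or 18/13° C (cool-season species). Percent inhibition versus untreated plants was scored at about 14 days, giving GR80; an asterisk marks activity short of 80% at the top rate.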

SMILES	Pre-emergence activity (GR80) SETFA [g/ha]
C=CCN(C)C(=O)n1cnc(S(=O)(=O)C(F)F)n1 [Example 30]	300

test system: AVEFA (wild oat); test: Pre-emergence herbicidal activity, cool season; type: in vivo, Avena fatua; settings: GR80 = lowest tested rate (300, 100, 30, 10 g/ha) with 80% or greater inhibition; approx. 14 days after treating; 18/13° C.
Procedure: as §3, §4, §5, §6

SMILES	Pre-emergence activity (GR80) AVEFA [g/ha]
C=CCN(C)C(=O)n1cnc(S(=O)(=O)C(F)F)n1 [Example 30]	100

test system: POLCO (wild buckwheat); test: Pre-emergence herbicidal activity, cool season; type: in vivo, Polygonum convolvulus; settings: lowest tested rate with 80% or greater inhibition; rates 300, 100, 30, 10 g/ha; about 14 days
Procedure, shortened: as §2

SMILES	Pre-emergence activity GR80, POLCO [g/ha]
C=CCN(C)C(=O)n1cnc(S(=O)(=O)C(F)F)n1 [Example 30]	100

test system: VERPE (creeping speedwell); test: Pre-emergence herbicidal activity, cool season; type: in vivo, Veronica persicaria; settings: lowest tested rate with 80% or greater inhibition; rates 300, 100, 30, 10 g/ha; about 14 days
Procedure, shortened: as §1

SMILES	Pre-emergence activity GR80, VERPE [g/ha]
C=CCN(C)C(=O)n1cnc(S(=O)(=O)C(F)F)n1 [Example 30]	10

test system: SETVI (green foxtail); test: Pre-emergence herbicidal activity, cool season; type: in vivo, Setaria viridis; settings: GR80 = lowest tested rate (300, 100, 30, 10 g/ha) with 80% or greater inhibition; approx. 14 days after treating; 18/13° C.
Procedure, shortened: as §1

SMILES	Pre-emergence activity (GR80) SETVI [g/ha]
C=CCN(C)C(=O)n1cnc(S(=O)(=O)C(F)F)n1 [Example 30]	300

test system: ALOMY (blackgrass); test: Pre-emergence herbicidal activity, cool season; type: in vivo, Alopecurus myosuroides; settings: GR80 = lowest tested rate (300, 100, 30, 10 g/ha) with 80% or greater inhibition; approx. 14 days after treating; 18/13° C.
Procedure, shortened: as §2

SMILES	Pre-emergence activity (GR80) ALOMY [g/ha]
C=CCN(C)C(=O)n1cnc(S(=O)(=O)C(F)F)n1 [Example 30]	300

test system: POROL (common purslane); test: Pre-emergence herbicidal activity, warm season; type: in vivo, Portulaca oleracea; settings: GR80 = lowest tested rate (300, 100, 30, 10 g/ha) with 80% or greater inhibition; approx. 14 days after treating; 30/21° C.
Procedure, shortened: as §1

SMILES	Pre-emergence activity (GR80) POROL [g/ha]
C=CCN(C)C(=O)n1cnc(S(=O)(=O)C(F)F)n1 [Example 30]	300

test system: BRAPP (broadleaf signalgrass); test: Pre-emergence herbicidal activity, warm season; type: in vivo, Brachiaria platyphylla; settings: GR80 = lowest tested rate (300, 100, 30, 10 g/ha) with 80% or greater inhibition; approx. 14 days after treating; 30/21° C.
Procedure, shortened: as §7

SMILES	Pre-emergence activity (GR80) BRAPP [g/ha]
C=CCN(C)C(=O)n1cnc(S(=O)(=O)C(F)F)n1 [Example 30]	300

test system: STEME (common chickweed); test: Pre-emergence herbicidal activity, cool season; type: in vivo, Stellaria media; settings: lowest tested rate with 80% or greater inhibition; rates 300, 100, 30, 10 g/ha; about 14 days
Procedure, shortened: as §1

SMILES	Pre-emergence activity GR80, STEME [g/ha]
C=CCN(C)C(=O)n1cnc(S(=O)(=O)C(F)F)n1 [Example 30]	10

test system: SASKR (russian thistle); test: Pre-emergence herbicidal activity, cool season; type: in vivo, Salsola kali; settings: lowest tested rate with 80% or greater inhibition; rates 300, 100, 30, 10 g/ha; about 14 days
Procedure, shortened: as §1

SMILES	Pre-emergence activity GR80, SASKR [g/ha]
C=CCN(C)C(=O)n1cnc(S(=O)(=O)C(F)F)n1 [Example 30]	10

test system: GALAP (catchweed bedstraw); test: Pre-emergence herbicidal activity, cool season; type: in vivo, Galium aparine; settings: lowest tested rate with 80% or greater inhibition; rates 300, 100, 30, 10 g/ha; about 14 days
Procedure, shortened: as §1

SMILES	Pre-emergence activity GR80, GALAP [g/ha]
C=CCN(C)C(=O)n1cnc(S(=O)(=O)C(F)F)n1 [Example 30]	100

test system: AGSST (creeping bentgrass); test: Pre-emergence herbicidal activity, cool season; type: in vivo, Agrostis stolonifera; settings: GR80 = lowest tested rate (300, 100, 30, 10 g/ha) with 80% or greater inhibition; approx. 14 days after treating; 18/13° C.
Procedure, shortened: as §1

SMILES	Pre-emergence activity (GR80) AGSST [g/ha]
C=CCN(C)C(=O)n1cnc(S(=O)(=O)C(F)F)n1 [Example 30]	30
